Where two headings read alike, the source gives them in different places.
System: cell lines from the Cancer Cell Line Encyclopedia (CCLE)
Experiment: High-throughput cell viability assay, CCLE cell line panel (n = 356)
Format: cell-based, human
Details: Homo sapiens
Procedure: Cell lines were partitioned into sensitive and insensitive groups based on compound potency (IC50). […] All other cell lines were obtained from ATCC (American Type Culture Collection), DSMZ (Deutsche Sammlung von Mikroorganismen und Zellkulturen), and HSRRB (Health Science Research Resources Bank) and cultured in RPMI or Dulbecco's modified Eagle's medium plus 10% FBS (Invitrogen, Carlsbad, CA) at 37°C, 5% CO2.

## COc1cc2c(cc1OC(C)C)[C@H](c1ccc(Cl)cc1)N(c1ccc(N(C)C[C@H]3CC[C@H](N4CCNC(=O)C4)CC3)cc1)C(=O)C2 [NVP-CFC218]
HCC-56, TP53 MUT
  IC50: > 8 µM
HCT 116 TP53(-/-), HCT 116, TP53 WT
  IC50: 3.38 µM
HCT-15, HCT-15, TP53 MUT
  IC50: > 8 µM
HD-MY-Z, TP53 MUT
  IC50: > 8 µM
HEC-50B, TP53 MUT
  IC50: > 8 µM
HEC-59, TP53 MUT
  IC50: > 8 µM
HEC-151, TP53 MUT
  IC50: 7.91 µM
HEL 92.1.7, HEL 92.1.7, TP53 MUT
  IC50: > 8 µM
HEY A8, Hey-A8, TP53 WT
  IC50: 3.12 µM
HGC-27, HGC-27, TP53 MUT
  IC50: 7.41 µM
HH, TP53 MUT
  IC50: > 8 µM
HLF, TP53 MUT
  IC50: > 8 µM
HMC-1-8, TP53 MUT
  IC50: > 8 µM
HPBALL, HPB-ALL, TP53 MUT
  IC50: > 8 µM
HSC-2, read-out: NVP- CFC218 IC50 (µM), cell line HSC-2, upper_aerodigestive_tract, TP53 MUT
  IC50: > 8 µM
HSC-3, HSC-3, TP53 MUT
  IC50: > 8 µM
HSC-4, HSC-4, TP53 MUT
  IC50: > 8 µM
HT-29, HT-29, TP53 MUT
  IC50: > 8 µM
HT-144, HT-144, TP53 WT
  IC50: 3.86 µM
HepG2, Hep G2, TP53 WT
  IC50: 1.95 µM
Hs 294T, TP53 MUT
  IC50: 3.61 µM
Hs 683, Hs 683, TP53 MUT
  IC50: > 8 µM
Hs 695T, TP53 WT
  IC50: 3.65 µM
Hs 729, TP53 MUT
  IC50: > 8 µM
Hs746T, Hs 746T, TP53 MUT
  IC50: > 8 µM
Hs766T, Hs 766T, TP53 MUT
  IC50: > 8 µM
Hs 936.T, TP53 WT
  IC50: 6.44 µM
Hs-578T, Hs 578T, TP53 MUT
  IC50: > 8 µM
HuCCT-1, HuCCT1, TP53 MUT
  IC50: > 8 µM
HuT78, HuT 78, TP53 MUT
  IC50: > 8 µM
Huh-7, HuH-7, TP53 MUT
  IC50: > 8 µM
IA-LM, TP53 MUT
  IC50: > 8 µM
IGR-39, IGR-39, TP53 MUT
  IC50: > 8 µM
IGROV-1, IGROV1, TP53 MUT
  IC50: > 8 µM
IM95, read-out: NVP- CFC218 IC50 (µM), cell line IM95, stomach, TP53 WT
  IC50: > 8 µM
IPC-298, IPC-298, TP53 MUT
  IC50: > 8 µM
IST-MES2, TP53 MUT
  IC50: > 8 µM
J82, TP53 MUT
  IC50: > 8 µM
JHH7, JHH-7, TP53 MUT
  IC50: > 8 µM
JHH-4, JHH-4, TP53 MUT
  IC50: > 8 µM
JHUEM-2, TP53 WT
  IC50: 1.73 µM
JMSU-1, JMSU-1, TP53 MUT
  IC50: > 8 µM
JVM-3, JVM-3, TP53 WT
  IC50: 3.64 µM
K029AX, TP53 WT
  IC50: 3.61 µM
KARPAS-299, KARPAS-299, TP53 MUT
  IC50: > 8 µM
KATO III, TP53 MUT
  IC50: > 8 µM
KCL-22, KCL-22, TP53 MUT
  IC50: > 8 µM
KE-39, TP53 MUT
  IC50: > 8 µM
KE-97, KE-97, TP53 WT
  IC50: 1.38 µM
KMBC-2, TP53 MUT
  IC50: 3.55 µM
KMM-1, KMM-1, TP53 MUT
  IC50: > 8 µM
KMRC-1, read-out: NVP- CFC218 IC50 (µM), cell line KMRC-1, kidney, TP53 WT
  IC50: > 8 µM
KMS-11, KMS-11, TP53 WT
  IC50: > 8 µM
KMS-26, KMS-26, TP53 MUT
  IC50: > 8 µM
KMS-27, read-out: NVP- CFC218 IC50 (µM), cell line KMS-27, haem._and_lymphoid_tissue, TP53 WT
  IC50: > 8 µM
KMS-28BM, read-out: NVP- CFC218 IC50 (µM), cell line KMS-28BM, haem._and_lymphoid_tissue, TP53 WT
  IC50: > 8 µM
KNS-42, read-out: NVP- CFC218 IC50 (µM), cell line KNS-42, central_nervous_system, TP53 MUT
  IC50: > 8 µM
KNS-60, TP53 MUT
  IC50: > 8 µM
KNS-62, KNS-62, TP53 MUT
  IC50: > 8 µM
KO52, TP53 MUT
  IC50: > 8 µM
KP4, TP53 WT
  IC50: > 8 µM
KP-2, TP53 MUT
  IC50: > 8 µM
KP-3, TP53 MUT
  IC50: > 8 µM
KP-N-SI9s, TP53 WT
  IC50: 1.2 µM
KS-1, TP53 WT
  IC50: 2.2 µM
KU812, KU812, TP53 MUT
  IC50: > 8 µM
KU-19-19, KU-19-19, TP53 WT
  IC50: 6.89 µM
KYM-1, TP53 WT
  IC50: 2.95 µM
KYSE-30, KYSE-30, TP53 MUT
  IC50: > 8 µM
KYSE-70, KYSE-70, TP53 MUT
  IC50: > 8 µM
KYSE-140, KYSE-140, TP53 MUT
  IC50: > 8 µM
KYSE-180, KYSE-180, TP53 MUT
  IC50: > 8 µM
KYSE-410, read-out: NVP- CFC218 IC50 (µM), cell line KYSE-410, oesophagus, TP53 MUT
  IC50: > 8 µM
KYSE-450, read-out: NVP- CFC218 IC50 (µM), cell line KYSE-450, oesophagus, TP53 MUT
  IC50: > 8 µM
KYSE-510, read-out: NVP- CFC218 IC50 (µM), cell line KYSE-510, oesophagus, TP53 MUT
  IC50: > 8 µM
KYSE-520, read-out: NVP- CFC218 IC50 (µM), cell line KYSE-520, oesophagus, TP53 MUT
  IC50: > 8 µM
L3.3, TP53 WT
  IC50: > 8 µM
L-363, L-363, TP53 MUT
  IC50: > 8 µM
L-428, read-out: NVP- CFC218 IC50 (µM), cell line L-428, haem._and_lymphoid_tissue, TP53 MUT
  IC50: > 8 µM
LC-1/sq-SF, TP53 MUT
  IC50: > 8 µM
LCLC-103H, TP53 MUT
  IC50: > 8 µM
LK-2, TP53 MUT
  IC50: > 8 µM
LN-18, LN-18, TP53 MUT
  IC50: > 8 µM
LN-229, read-out: NVP- CFC218 IC50 (µM), cell line LN-229, central_nervous_system, TP53 WT
  IC50: > 8 µM
LOU-NH91, LOU-NH91, TP53 MUT
  IC50: > 8 µM
